pIC50: −log10 of the molar value. The source made the active and inactive calls. The rule behind the calls is not given here.
Tests used:
[1] = Kinetic solubility of the compound in WEEV replication assay medium in presence of 10% fetal bovine serum; assay type: physicochemical; conditions: for Kinetic_solubility: serum; for solubility kinetic: WEEV replication assay medium with 10% fetal bovine serum, read-out: Kinetic_solubility
[2] = Cytotoxicity against human BE(2)-C cells after 18 to 20 hrs by MTT assay; assay type: cell-based
[3] = biological target: MDR1 (ABCB1, P-glycoprotein) (Homo sapiens, UniProt P08183); experiment: Inhibition of human MDR1 expressed in MDCK2 cells assessed as increase of rhodamine 123 uptake at 30 uM up to 240 mins relative to 5 uM tariquidar; assay type: ADME, cell-based, MDCK-II; conditions: MDCK2 cells expressing human MDR1, probe rhodamine 123, read-out: Activity
[4] = test system: Western equine encephalitis virus; experiment: microbe, parasite or virus in culture; conditions: BE(2)-C
[5] = biological target: ATP-dependent translocase ABCB1 (Homo sapiens, UniProt P08183); experiment: Inhibition of human MDR1 expressed in MDCK2 cells assessed as increase of rhodamine 123 uptake at 5 uM up to 240 mins; assay type: ADME, cell-based; design: scale not given: the % may be the effect or the level left; conditions: mdck-ii, 4 h
[6] = test system: BSR-T7; experiment: Inhibition of host cell cap-independent translation in Cricetinae BSR-T7 cells assessed as suppression of pT7/CITE-LUC activity at 0.1 to 10 uM after 20 hrs; assay type: functional, cell-based
[7] = Inhibition of host cell cap-dependent translation in Cricetinae BSR-T7 cells assessed as suppression of pSV40-LUC activity at 0.1 to 10 uM after 20 hrs; assay type: functional, cell-based
[8] = test system: Fort Morgan virus; assay type: functional
[9] = test system: Fort Morgan virus; assay type: functional; remark: listed apart in the source
[10] = test system: Fort Morgan virus; assay type: functional; remark: listed apart in the source
[11] = test system: Encephalomyocarditis virus; experiment: Antiviral activity against Encephalomyocarditis virus infected in HEK293 cells assessed as reduction of viral titer at 25 uM by plaque reduction assay relative to untreated control; assay type: functional
[12] = test system: Western equine encephalitis virus; assay type: functional
[13] = test system: Fort Morgan virus; experiment: Antiviral activity against Fort Morgan virus infected in HEK293 cells assessed as reduction of viral titer by plaque reduction assay relative to untreated control; assay type: functional, cell-based
[14] = test system: Western equine encephalitis virus; assay type: functional; remark: listed apart in the source
[15] = test system: Venezuelan equine encephalitis virus; experiment: Antiviral activity against Venezuelan equine encephalitis virus TC-83 vaccine infected in HEK293 cells assessed as reduction of viral titer at 25 uM by plaque reduction assay relative to untreated control; assay type: functional
[16] = test system: Liver; experiment: (§1) Half life in BALB/c mouse liver microsomes at 1 uM in presence of NADPH by HPLC-MS/MS method; assay type: ADME; conditions: microsomes, 1 µM
[17] = test system: California encephalitis virus; experiment: Antiviral activity against California encephalitis virus infected in HEK293 cells assessed as reduction of viral titer at 25 uM by plaque reduction assay relative to untreated control; assay type: functional
[18] = test system: Fort Morgan virus; assay type: functional; remark: listed apart in the source
[19] = as §1; assay type: ADME; conditions: BALB/c, liver microsomes

Chain of MDR1 (ABCB1, P-glycoprotein) (P08183 whole entry): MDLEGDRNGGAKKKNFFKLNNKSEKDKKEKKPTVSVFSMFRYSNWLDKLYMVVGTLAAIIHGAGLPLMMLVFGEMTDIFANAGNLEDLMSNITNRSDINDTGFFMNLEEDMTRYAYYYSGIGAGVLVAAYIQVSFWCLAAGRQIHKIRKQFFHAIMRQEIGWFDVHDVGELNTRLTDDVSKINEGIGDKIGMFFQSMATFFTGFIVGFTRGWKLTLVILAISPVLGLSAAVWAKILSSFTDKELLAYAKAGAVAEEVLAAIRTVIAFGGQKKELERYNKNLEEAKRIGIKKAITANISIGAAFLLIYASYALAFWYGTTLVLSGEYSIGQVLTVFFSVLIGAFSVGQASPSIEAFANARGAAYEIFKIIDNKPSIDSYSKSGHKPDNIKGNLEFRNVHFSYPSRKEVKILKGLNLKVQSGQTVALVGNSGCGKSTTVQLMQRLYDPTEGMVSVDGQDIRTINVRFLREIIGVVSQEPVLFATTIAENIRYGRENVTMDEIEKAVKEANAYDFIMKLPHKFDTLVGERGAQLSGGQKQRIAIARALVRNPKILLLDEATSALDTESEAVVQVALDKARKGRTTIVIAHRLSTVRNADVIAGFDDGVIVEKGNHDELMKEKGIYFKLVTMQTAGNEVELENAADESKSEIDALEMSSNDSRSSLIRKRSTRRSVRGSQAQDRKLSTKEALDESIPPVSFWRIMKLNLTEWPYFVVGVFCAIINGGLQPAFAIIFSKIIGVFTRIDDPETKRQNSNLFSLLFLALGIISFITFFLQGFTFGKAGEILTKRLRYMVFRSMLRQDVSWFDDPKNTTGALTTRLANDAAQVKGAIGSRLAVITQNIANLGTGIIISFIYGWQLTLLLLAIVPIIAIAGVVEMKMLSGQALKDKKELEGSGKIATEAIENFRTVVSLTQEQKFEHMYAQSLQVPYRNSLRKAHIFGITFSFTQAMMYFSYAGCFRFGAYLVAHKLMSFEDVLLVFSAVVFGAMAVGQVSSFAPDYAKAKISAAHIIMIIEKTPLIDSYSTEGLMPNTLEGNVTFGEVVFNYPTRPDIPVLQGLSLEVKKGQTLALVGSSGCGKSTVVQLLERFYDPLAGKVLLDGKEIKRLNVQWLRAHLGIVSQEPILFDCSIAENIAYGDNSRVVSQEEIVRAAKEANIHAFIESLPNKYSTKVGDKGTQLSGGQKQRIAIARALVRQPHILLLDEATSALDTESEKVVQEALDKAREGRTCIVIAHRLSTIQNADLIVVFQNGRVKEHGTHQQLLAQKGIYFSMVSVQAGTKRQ
Chain of ATP-dependent translocase ABCB1 (P08183 whole entry): as above

Row | SMILES | Kinetic_solubility [1] | CC50 [2] | inhibition at 4 h, 30 µM [3] | pIC50 [4] | also measured
1 | O=C(c1ccc(Cl)cc1)c1ccccc1C(=O)N1CCC(C(=O)NCCc2ccncc2)CC1 | > 250 µg/mL | > 50 µM | 1.8% | < 4.30 | 
2 | COc1cc2c(cc1OC)CN(CCc1ccc(NC(=O)c3cc(OC)c(OC)cc3NC(=O)c3cnc4ccccc4c3)cc1)CC2 |  |  |  |  | Activity [5]: 1123%
3 | O=C(NCCc1ccncc1)C1CCN(C(=O)c2ccccc2Nc2ccc(Cl)cc2)CC1 | > 250 µg/mL | > 100 µM | 47.7% | 5.80 | inhibition [6]: inactive; pIC50 [7]: 5.66; Activity [8]: 3.7 ×10⁶ PFU/ml; Activity [9]: 58.1%; Activity [10]: 54.6%; fold change (FC) [11]: 10; Activity [12]: 49.2 ×10⁶ PFU/ml; pIC50 [13]: 5.28; inhibition [13]: Dose-dependent effect; Activity [14]: 3.2 ×10⁶ PFU/ml; fold change (FC) [15]: 10; t1/2 [16]: 19 min; fold change (FC) [17]: 10
4 | O=C(NCCc1ccncc1)C1CCN(C(=O)c2ccccc2NCc2ccccc2)CC1 | > 250 µg/mL | 92.2 µM | 2.5% | 4.72 | 
5 | O=C(NCCc1ccncc1)C1CCN(C(=O)c2ccccc2Oc2ccc(Cl)cc2)CC1 |  | 56 µM | 9.3% | 5.21 | solubility kinetic [1]: 62 µg/mL; Activity ([8]; 25 uM): inactive; Activity ([9]; 25 uM): inactive; Activity ([10]; 5 uM): inactive; Activity ([12]; 5 uM): inactive; Activity ([14]; 25 uM): inactive; t1/2 [16]: 18 min; Activity ([18]; 5 uM): inactive
6 | CN(c1ccc(Cl)cc1)c1ccccc1C(=O)N1CCC(C(=O)NCCc2ccncc2)CC1 | > 250 µg/mL | > 100 µM | 3.9% | 4.81 | 
7 | O=C(NCCc1ccncc1)C1CCN(C(=O)Cc2ccc(Cl)cc2)CC1 |  | > 100 µM |  | < 4.00 | 
8 | O=C(NCCc1ccncc1)C1CCN(C(=O)CCc2ccc(Cl)cc2)CC1 |  | > 100 µM |  | < 4.00 | 
9 | O=C(NCCc1ccncc1)C1CCN(C(=O)[C@H]2CCCN2Cc2ccc(Cl)cc2)CC1 |  | > 100 µM |  | 4.27 | 
10 | O=C(NCCc1ccncc1)C1CCN(C(=O)NCc2ccc(Cl)cc2)CC1 |  | > 100 µM |  | 4.22 | 
11 | O=C(NCCc1ccncc1)C1CCN(c2cc(=O)n(Cc3ccc(Cl)cc3)c3ccccc23)CC1 |  | 34.1 µM |  | 4.96 | 
12 | O=C(NCCc1ccncc1)C1CCN(C(=O)c2ccccc2Cc2ccc(Cl)cc2)CC1 |  | 70.7 µM | 22.6% | 5.84 | solubility kinetic [1]: 62 µg/mL; t1/2 [16]: 3 min
13 | O=C(NCCc1ccncc1)C1CCN(C(=O)c2cccn2Cc2ccc(Cl)cc2)CC1 |  | > 100 µM |  | 6.17 | solubility kinetic [1]: 125 µg/mL; half-life at 1 µM [19]: 3 min
14 | O=C(NCCc1ccncc1)C1CCN(C(=O)[C@@H]2CCCN2Cc2ccc(Cl)cc2)CC1 |  | 91.6 µM |  | 4.87 | 
15 | O=C(NCCc1ccncc1)C1CCN(C(=O)c2ccccc2NCCc2ccc(Cl)cc2)CC1 | > 250 µg/mL | 86 µM | 30.7% | 5.46 | 
16 | O=C(NCCc1ccncc1)C1CCN(C(=O)c2cccc3c2[nH]c2ccccc23)CC1 |  | > 100 µM |  | 4.23 | 
17 | O=C(NCCc1ccncc1)C1CCN(c2cc(=O)n(-c3ccc(Cl)cc3)c3ccccc23)CC1 |  | > 100 µM |  |  | 
18 | O=C(NCCc1ccncc1)C1CCN(C(=O)c2ccccc2NCc2ccc(Cl)cc2)CC1 | > 250 µg/mL | 75.2 µM | 59.6% | 6.25 | inhibition [6]: inactive; pIC50 [7]: 6.00; Activity [8]: 3.2 ×10⁶ PFU/ml; Activity [9]: 66.6%; Activity [10]: 73.3%; fold change (FC) [11]: 10; Activity [12]: 11.7 ×10⁶ PFU/ml; pIC50 [13]: 5.64; inhibition [13]: Dose-dependent effect; Activity [14]: 1.6 ×10⁶ PFU/ml; fold change (FC) [15]: 10; t1/2 [16]: 15 min; fold change (FC) [17]: 10; Activity [18]: 9.4 ×10⁶ PFU/ml
19 | O=C(NCCc1ccncc1)C1CCN(C(=O)[C@@H]2CCCN2C(=O)c2ccc(Cl)cc2)CC1 |  |  |  | < 4.00 | 
20 | O=C(NCCc1ccncc1)C1CCN(C(=O)c2cc3ccccc3n2Cc2ccc(Cl)cc2)CC1 |  |  |  | 6.28 | solubility kinetic [1]: 31 µg/mL; pIC50 [7]: 7.00; pIC50 [13]: 6.00; half-life at 1 µM [19]: 9 min
21 | O=C(NCCc1ccncc1)C1CCN(C(=O)[C@H]2CCCN2C(=O)c2ccc(Cl)cc2)CC1 |  | > 100 µM |  | < 4.00 | 
22 | O=C(NCCc1ccncc1)C1CCN(C(=O)c2cccc3c2[nH]c2ccc(Cl)cc23)CC1 |  | 66.1 µM |  | 4.73 | 
23 | O=C(NCCc1ccncc1)C1CCN(C(=O)c2ccccc2Nc2ccccc2)CC1 | > 250 µg/mL | > 100 µM | 10.9% | 4.54 | 
